Data taken from US8895585B2, “Nicotinamide derivative or salt thereof” (FUJIFILM Corporation, priority 2010, dated 2014).

Key:
male DBA/1J mice = assay: Mouse type-II collagen-induced arthritis (prophylactic and therapeutic administration test); type: in vivo; conditions: for advancement of arthritis after the onset (arthritis score): prophylactic administration test, once daily Day 21 to Day 34, 1 to 30 mg/kg/day
Method: The compounds synthesized in Example 8-1, Example 4-17, and Example 6-49 were tested to examine effects upon mouse type II collagen arthritis. To 2 mg/mL bovine type II collagen solution (Koken Co., Ltd.) dissolved in 0.1 mol/L acetic acid, an equal amount of Freund's complete adjuvant (Wako Pure Chemical Industries, Ltd.) was added to prepare an emulsion. A portion of the emulsion was intradermally injected into the tail bases of 7- or 8-week-old male DBA/1J mice (Charles River Laboratories Japan, Inc.) at a dose of 0.2 mL per mouse (antigen amount: 0.2 mg/mouse) on Day 0 and Day 21 twice, so as to induce arthritis. Each compound was administered once daily from Day 21 to Day 34 in the prophylactic administration test (1 to 30 mg/kg/day), and administered once daily from Day 27 to Day 35 in the therapeutic administration test (25 mg/kg/day). Arthritis scores for four limbs for each mouse were determined starting from Day 21. Specifically, the total score of four limbs of a mouse was designated as the individual arthritis score (12 points at a maximum per mouse) based on the following: score 0: no change; score 1: swelling of 1 or 2 digit joints or mild swelling of the carpal region/the ankle region alone; score 2: swelling of joints of at least 3 digits or obvious swelling of the carpal region/the ankle region; and score 3: obvious swelling over forelimbs or hindlimbs.

female Lewis rats = assay: Rat type-II-collagen-induced arthritis; type: in vivo; conditions: oral administration at 10 mg/kg/day, once daily Day 7 to Day 20, hindlimb volume by plethysmometer, read-out: inhibition of hindlimb swelling compared with the control group
Method: The compounds were tested to examine effects upon rat type II collagen arthritis. To 3 mg/mL bovine type II collagen solution (Collagen Gijutsu Kenshu-Kai) dissolved in 0.05 mol/L acetic acid, an equal amount of Freund's incomplete adjuvant (Wako Pure Chemical Industries, Ltd.) was added to prepare an emulsion. A portion of the emulsion (0.5 ml) was intradermally injected into the tail bases of 7- or 8-week-old female Lewis rats (Charles River Laboratories Japan, Inc.) (Day 0). Each rat was subjected to the same treatment on Day 7 after the initial inoculation so as to induce arthritis. Each test compound was orally administered from Day 7 to Day 20 once daily. At a given time during the period from Day 7 to Day 21, the rat hindlimb volume was determined using a plethysmometer (UGO BASILE), and the result was designated as an arthritis index. The following compound group inhibited hindlimb swelling by 85% or greater compared with the control group in the case of oral administration at 10 mg/kg/day: the compounds of Example 4-17, Example 6-49, Example 6-117, Example 6-157, Example 6-249, Example 6-322, Example 6-375, and Example 6-395.

[1] = tested on: 170 types of kinases excluding Syk; assay: Kinase selectivity, Profiler Pro kits (Caliper); type: biochemical; conditions: test compound 100 nM
Method: The concentrations of test compounds were adjusted to 100 nM. The test compounds were examined using Profiler Pro kits (Caliper) in terms of activity against each of 170 types of kinases excluding Syk. […] A compound (Example 6-157) having a kinase inhibitory rate of 75% or more with respect to 12 types of kinases was also obtained. Further, an inhibitor (Example 6-373) having a kinase inhibitory rate of 75% or more with respect to 24 types of kinases was obtained.

[2] = molecular target: T1, glutathione S-transferase (GST)-fused full-length human Syk protein (Homo sapiens, UniProt P43405); assay: Syk enzyme assay; type: biochemical; conditions: read-out: Syk-inhibitory activity (IC50)
T1 construct: (GST)-fused full-length human Syk protein; GST (glutathione S-transferase); purchased Carna Biosciences
How it was run: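 GST-tagged full-length human Syk (baculovirus) preincubated with compound 15 min at room temperature (pH 7.0, 10 mM MgCl2), then reacted 40 min with 0.4 μM biotinylated peptide substrate and 27 μM ATP (final). Phosphorylation read by HTRF (615/665 nm) after EDTA stop; IC50 reported.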

female BALB/c mice = assay: Mouse type-II-collagen-antibody-induced arthritis; type: in vivo; conditions: intraperitoneal 30 mg/kg/day, twice daily, Day 0 to Day 13
Method: The compound synthesized in Example 8-1 was tested to examine effects upon mouse-type-II-collagen-antibody-induced arthritis. An anti-type II collagen antibody mixture (Chondrex) was intraperitoneally injected into 7-week-old female BALB/c mice (Charles River Laboratories Japan, Inc.) (1.5 mg per mouse) (Day 0). An LPS solution 0111:B4 (Chondrex) (50 μg) was intraperitoneally injected thereinto three days later (Day 3), thereby inducing arthritis. Swelling scores were determined for four limbs of each mouse once daily from Day 3 to Day 14. Specifically, evaluation was carried out using a twelve-point scale for the sum of the scores for the four limbs for each mouse: 0 point: no change; 1 point: mild erythema/swelling on the carpal region or the ankle/calcaneal region; 2 points: obvious swelling on the carpal region or the ankle/calcaneal region; 3 points: severe swelling over forelimbs or hindlimbs. The compound synthesized in Example 8-1 was intraperitoneally administered at 30 mg/kg/day twice daily on consecutive days (from Day 0 to Day 13). The bone destruction score was determined based on soft X-ray images of four limbs taken on Day 14. […]

| Structure (SMILES) | advancement of arthritis after the onset (arthritis score) (male DBA/1J mice) | inhibition in vivo at 10 mg/kg/day (female Lewis rats) [%] | number of kinases with kinase inhibitory rate of 75% or more [1] | further results |
| --- | --- | --- | --- | --- |
| Cc1ccc(Nc2nc(N[C@@H]3CCCC[C@@H]3N)c(F)cc2C(N)=O)cn1 (relative stereo) [Example 4-17, 6-(cis-2-aminocyclohexylamino)-5-fluoro-2-(6-methylpyridin-3-ylamino)nicotinamide] | strongly inhibited | ≥ 85 | – | – |
| Cc1cncc(Nc2nc(N[C@@H]3CCCC[C@@H]3N)c(F)cc2C(N)=O)c1 (relative stereo) [Example 6-49, 6-(cis-2-aminocyclohexylamino)-5-fluoro-2-(5-methylpyridin-3-ylamino)nicotinamide] | strongly inhibited | ≥ 85 | – | advancement of arthritis (arthritis score) (male DBA/1J mice; therapeutic administration test, once daily Day 27 to Day 35, 25 mg/kg/day): strongly inhibited |
| COCCOc1cc(Nc2nc(N[C@@H](CN)CC(C)C)c(F)cc2C(N)=O)ccn1 [Example 6-157] | – | ≥ 85 | 12 types of kinases | – |
| C[C@H](N)[C@H](Nc1nc(Nc2cncc(-n3cccn3)c2)c(C(N)=O)cc1F)C1CC1 [Example 6-373, 2-((5-(1H-pyrazol-1-yl)pyridin-3-yl)amino)-6-(((1R,2S)-2-amino-1-cyclopropylpropyl)amino)-5-fluoronicotinamide] | – | – | 24 types of kinases | – |
| COc1cc(Nc2nc(NCCN)c(F)cc2C(N)=O)cc(OC)c1 [Example 8-1, 6-(2-aminoethylamino)-2-(3,5-dimethoxyphenylamino)-5-fluoronicotinamide] | strongly inhibited | – | – | IC50 [2]: ≤ 1000 nM; increase in the swelling score (female BALB/c mice; scored Day 3 to Day 14): almost completely inhibited; increase in the bone destruction score (female BALB/c mice; soft X-ray images on Day 14): almost completely inhibited |
